How the values were obtained:
[1] = The drug is tested on Ruminococcus lactaris strain: ATCC29176 for biotransformation. The drug concentrations were measured before and after a 12-h incubation by liquid-chromatography-coupled mass spectrometry (LC–MS); details: 2 µM
[2] = The drug is tested on Collinsella aerofaciens strain: ATCC25986 for biotransformation. The drug concentrations were measured before and after a 12-h incubation by liquid-chromatography-coupled mass spectrometry (LC–MS); details: 2 µM
[3] = The drug is tested on Edwardsiella tarda strain: ATCC23685 for biotransformation. The drug concentrations were measured before and after a 12-h incubation by liquid-chromatography-coupled mass spectrometry (LC–MS); details: 2 µM
[4] = parabacteroides johnsonii, 12 h, 2 µM
[5] = The drug is tested on Bacteroides sp. WH2 strain: WH2 for biotransformation. The drug concentrations were measured before and after a 12-h incubation by liquid-chromatography-coupled mass spectrometry (LC–MS); details: bacteroides sp. wh2, 12 h, 2 µM
[6] = parabacteroides distasonis, 12 h, 2 µM
[7] = The drug is tested on Bacteroides pectinophilus strain: ATCC43243 for biotransformation. The drug concentrations were measured before and after a 12-h incubation by liquid-chromatography-coupled mass spectrometry (LC–MS); details: 2 µM
[8] = The drug is tested on Dorea formicigenerans strain: ATCC27755 for biotransformation. The drug concentrations were measured before and after a 12-h incubation by liquid-chromatography-coupled mass spectrometry (LC–MS); details: 2 µM
[9] = The drug is tested on Eubacterium rectale strain: ATCC33656 for biotransformation. The drug concentrations were measured before and after a 12-h incubation by liquid-chromatography-coupled mass spectrometry (LC–MS); details: agathobacter rectalis, 2 µM
[10] = The drug is tested on Enterobacter cancerogenus strain: ATCC35316 for biotransformation. The drug concentrations were measured before and after a 12-h incubation by liquid-chromatography-coupled mass spectrometry (LC–MS); details: 2 µM
[11] = The drug is tested on Escherichia coli strain: BW25113 for biotransformation. The drug concentrations were measured before and after a 12-h incubation by liquid-chromatography-coupled mass spectrometry (LC–MS); details: 2 µM
[12] = The drug is tested on Clostridium ramosum strain: DSM1402 for biotransformation. The drug concentrations were measured before and after a 12-h incubation by liquid-chromatography-coupled mass spectrometry (LC–MS); details: thomasclavelia ramosa, 2 µM
[13] = bacteroides thetaiotaomicron, 12 h, 2 µM
[14] = enterocloster bolteae, 12 h, 2 µM
[15] = The drug is tested on Ruminococcus gnavus strain: ATCC29149 for biotransformation. The drug concentrations were measured before and after a 12-h incubation by liquid-chromatography-coupled mass spectrometry (LC–MS); details: mediterraneibacter gnavus, 2 µM
[16] = The drug is tested on Alistipes indistinctus strain: DSM22520 for biotransformation. The drug concentrations were measured before and after a 12-h incubation by liquid-chromatography-coupled mass spectrometry (LC–MS); details: 2 µM
[17] = The drug is tested on Bacteroides fragilis strain: ATCC43859 for biotransformation. The drug concentrations were measured before and after a 12-h incubation by liquid-chromatography-coupled mass spectrometry (LC–MS); details: 2 µM
[18] = akkermansia muciniphila, 12 h, 2 µM
[19] = bacteroides intestinalis, 12 h, 2 µM
[20] = The drug is tested on Parabacteroides merdae strain: ATCC43184 for biotransformation. The drug concentrations were measured before and after a 12-h incubation by liquid-chromatography-coupled mass spectrometry (LC–MS); details: 2 µM

SMILES | Bacterial Biotransformation [1] | Bacterial Biotransformation [2] | Bacterial Biotransformation [3] | Bacterial Biotransformation [4] | Bacterial Biotransformation [5] | Bacterial Biotransformation [6] | Bacterial Biotransformation [7] | Bacterial Biotransformation [8] | Bacterial Biotransformation [9] | Bacterial Biotransformation [10] | Bacterial Biotransformation [11] | Bacterial Biotransformation [12] | Bacterial Biotransformation [13] | Bacterial Biotransformation [14] | Bacterial Biotransformation [15] | Bacterial Biotransformation [16] | Bacterial Biotransformation [17] | Bacterial Biotransformation [18] | Bacterial Biotransformation [19] | Bacterial Biotransformation [20]
CCCCC(=O)O[C@]1(C(=O)CO)[C@@H](C)C[C@H]2[C@@H]3CCC4=CC(=O)C=C[C@]4(C)[C@@]3(F)[C@@H](O)C[C@@]21C [BETAMETHASONE VALERATE] | Compound NOT metabolized | Compound NOT metabolized | Compound NOT metabolized | Compound metabolized | Compound NOT metabolized | Compound metabolized | Compound NOT metabolized | Compound NOT metabolized | Compound NOT metabolized | Compound NOT metabolized | Compound metabolized | Compound NOT metabolized | Compound NOT metabolized | Compound metabolized | – | – | – | – | – | –
CN(C)C(=O)C(CCN1CCC(O)(c2ccc(Cl)cc2)CC1)(c1ccccc1)c1ccccc1 [LOPERAMIDE] | Compound NOT metabolized | Compound NOT metabolized | Compound NOT metabolized | – | Compound NOT metabolized | Compound metabolized | Compound NOT metabolized | Compound NOT metabolized | Compound NOT metabolized | – | Compound metabolized | Compound NOT metabolized | Compound NOT metabolized | Compound NOT metabolized | Compound NOT metabolized | Compound metabolized | – | – | – | –
Cc1cc(C)cc(OCC2CNC(=O)O2)c1 (configuration not stated) [METAXALONE] | Compound NOT metabolized | Compound NOT metabolized | – | – | Compound NOT metabolized | Compound metabolized | Compound metabolized | Compound NOT metabolized | Compound NOT metabolized | – | – | – | – | Compound NOT metabolized | Compound NOT metabolized | – | Compound metabolized | Compound NOT metabolized | Compound NOT metabolized | –
CC(C)(C)NC[C@H](O)COc1ccccc1C1CCCC1.CC(C)(C)NC[C@H](O)COc1ccccc1C1CCCC1.O=S(=O)(O)O [PENBUTOLOL SULFATE] | Compound NOT metabolized | Compound NOT metabolized | Compound NOT metabolized | – | Compound NOT metabolized | Compound NOT metabolized | – | Compound NOT metabolized | Compound NOT metabolized | – | Compound NOT metabolized | – | Compound NOT metabolized | Compound NOT metabolized | Compound NOT metabolized | Compound NOT metabolized | – | – | Compound NOT metabolized | Compound NOT metabolized
C=C[C@H]1CN2CC[C@H]1C[C@H]2[C@H](O)c1ccnc2ccc(OC)cc12.C=C[C@H]1CN2CC[C@H]1C[C@H]2[C@H](O)c1ccnc2ccc(OC)cc12.O.O.O=S(=O)(O)O [QUININE SULFATE] | – | Compound NOT metabolized | Compound NOT metabolized | Compound NOT metabolized | Compound NOT metabolized | Compound NOT metabolized | Compound NOT metabolized | Compound NOT metabolized | Compound NOT metabolized | – | – | Compound NOT metabolized | – | Compound NOT metabolized | Compound NOT metabolized | – | – | Compound NOT metabolized | Compound NOT metabolized | –
CCC(=O)NCC[C@@H]1CCc2ccc3c(c21)CCO3 [RAMELTEON] | Compound NOT metabolized | Compound NOT metabolized | Compound NOT metabolized | Compound NOT metabolized | Compound NOT metabolized | Compound metabolized | Compound NOT metabolized | Compound NOT metabolized | – | – | Compound NOT metabolized | Compound NOT metabolized | Compound metabolized | Compound NOT metabolized | Compound NOT metabolized | Compound NOT metabolized | Compound metabolized | – | – | Compound metabolized
Cc1ccc(/C(=C\CN2CCCC2)c2ccccn2)cc1 [TRIPROLIDINE] | Compound NOT metabolized | Compound NOT metabolized | Compound NOT metabolized | Compound NOT metabolized | Compound NOT metabolized | Compound NOT metabolized | Compound NOT metabolized | Compound NOT metabolized | – | – | – | Compound NOT metabolized | Compound NOT metabolized | Compound NOT metabolized | Compound NOT metabolized | Compound NOT metabolized | Compound NOT metabolized | Compound NOT metabolized | Compound NOT metabolized | Compound NOT metabolized
O=C(O[C@H]1C[C@H]2CC[C@@H](C1)[N+]21CCCC1)C(O)(c1ccccc1)c1ccccc1.[Cl-] [TROSPIUM CHLORIDE] | Compound NOT metabolized | Compound NOT metabolized | Compound NOT metabolized | Compound NOT metabolized | Compound NOT metabolized | Compound NOT metabolized | – | Compound NOT metabolized | Compound NOT metabolized | Compound NOT metabolized | Compound NOT metabolized | Compound NOT metabolized | Compound NOT metabolized | Compound NOT metabolized | Compound NOT metabolized | – | – | Compound NOT metabolized | Compound NOT metabolized | Compound NOT metabolized

Reference: ChEMBL document CHEMBL5303573, “Mapping human microbiome drug metabolism by gut bacteria and their genes” (Nature, 2019)
